Laboratory results reported in patent US12606561B2, “Substituted pyrazolo[1,5-a][1,3,5]triazines as CDK inhibitors” (QURIENT CO., LTD., priority 2018, dated 2026).

Assays:
CDK7/Cyclin H/MNAT1 = target: T1, CDK7/Cyclin H/MNAT1 (Homo sapiens, UniProt P50613); experiment: Enzymatic assay for CDK7 (LANCE Ultra kinase assay, FRET based); format: biochemical; conditions: for IC50: ATP at Km
T1 construct: purchased Invitrogen PR6749B
Method in brief: (§1)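 TR-FRET (LANCE Ultra) kinase assays with a ULight-labelled peptide substrate and a Europium-labelled anti-phospho antibody. ATP was set at its Km for each kinase. Inhibition was measured on purified CDK/cyclin complexes: CDK7/Cyclin H/MNAT1 and CDK1/Cyclin B.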

OVCAR-3 = OVCAR-3 viability assay (CellTiter-Glo, 72 hours); format: cell-based; conditions: Homo sapiens; OVCAR-3 cells
Method in brief: (§2)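 Cells in RPMI-1640 with 10% FBS were seeded (MV4-11 1×10^4, OVCAR-3 5×10^3, A2780 1×10^3 cells/well) and treated 24 h later with compound at 0.0015–10 uM, final DMSO under 0.1%. After 72 h at 37 °C, viability was read by CellTiter-Glo luminescence, in duplicate.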

A2780 = A2780 viability assay (CellTiter-Glo, 72 hours); format: cell-based; conditions: Homo sapiens; A2780 cells
Method in brief: as §2

CDK1/Cyclin B = target: T2, CDK1/Cyclin B (Homo sapiens, UniProt P06493); experiment: Enzymatic assay for CDK1 (LANCE Ultra kinase assay, FRET based); format: biochemical; conditions: ATP at Km; read-out: CDK1 enzymatic activity IC50
T2 construct: purchased Invitrogen PR4768C
T2 sequence (P06493 whole entry): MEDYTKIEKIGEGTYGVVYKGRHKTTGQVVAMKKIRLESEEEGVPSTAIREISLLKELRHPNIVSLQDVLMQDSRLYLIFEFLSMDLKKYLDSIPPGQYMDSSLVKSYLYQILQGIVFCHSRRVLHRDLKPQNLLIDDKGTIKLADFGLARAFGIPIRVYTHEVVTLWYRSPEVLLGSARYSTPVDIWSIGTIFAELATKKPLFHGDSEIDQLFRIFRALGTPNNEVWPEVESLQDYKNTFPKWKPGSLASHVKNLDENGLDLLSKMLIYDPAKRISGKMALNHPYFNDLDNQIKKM
T2 sequence (P14635 whole entry partner): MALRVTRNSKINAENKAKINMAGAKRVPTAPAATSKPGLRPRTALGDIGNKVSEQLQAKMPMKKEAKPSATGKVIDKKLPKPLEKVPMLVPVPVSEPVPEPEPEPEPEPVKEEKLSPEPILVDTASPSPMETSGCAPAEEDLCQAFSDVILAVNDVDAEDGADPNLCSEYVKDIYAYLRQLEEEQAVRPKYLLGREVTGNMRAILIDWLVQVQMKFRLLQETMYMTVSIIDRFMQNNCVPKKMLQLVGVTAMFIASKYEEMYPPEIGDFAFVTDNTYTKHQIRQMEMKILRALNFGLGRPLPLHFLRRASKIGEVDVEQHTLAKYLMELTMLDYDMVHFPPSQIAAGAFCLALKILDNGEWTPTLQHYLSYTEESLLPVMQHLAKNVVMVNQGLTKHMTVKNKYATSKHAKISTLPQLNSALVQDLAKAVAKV
Method in brief: as §1

CDK2/Cyclin A = target: T3, CDK2/Cyclin A (Homo sapiens, UniProt P24941); experiment: Enzymatic assay for CDK2 (LANCE Ultra kinase assay, FRET based); format: biochemical; conditions: ATP at Km
T3 construct: purchased Invitrogen PV6290
Method in brief: (§3)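 Compounds tested as 8 doses in 4-fold steps against CDK2/Cyclin A ([…]) or CDK5/p25 ([…]), with ATP at its Km and 68 nM ULight-MBP substrate. After 60 min at 23° C., EDTA plus Eu-labelled anti-phospho-MBP added; TR-FRET (615/665 nm) read after another 60 min.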

CDK5/p25 = target: T4, CDK5/p25 (Homo sapiens, UniProt Q00535); experiment: Enzymatic assay for CDK5 (LANCE Ultra kinase assay, FRET based); format: biochemical; conditions: ATP at Km
T4 construct: purchased Invitrogen PR8543B
T4 sequence (Q00535 whole entry): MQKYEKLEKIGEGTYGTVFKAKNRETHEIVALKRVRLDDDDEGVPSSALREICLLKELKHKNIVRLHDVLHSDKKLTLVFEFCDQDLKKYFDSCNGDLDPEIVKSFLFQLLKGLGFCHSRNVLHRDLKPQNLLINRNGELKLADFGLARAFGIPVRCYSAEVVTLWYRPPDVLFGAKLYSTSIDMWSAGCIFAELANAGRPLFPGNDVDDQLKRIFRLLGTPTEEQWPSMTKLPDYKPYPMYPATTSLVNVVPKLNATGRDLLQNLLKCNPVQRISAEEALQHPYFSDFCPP
T4 sequence (Q15078 99-307 partner limits assumed): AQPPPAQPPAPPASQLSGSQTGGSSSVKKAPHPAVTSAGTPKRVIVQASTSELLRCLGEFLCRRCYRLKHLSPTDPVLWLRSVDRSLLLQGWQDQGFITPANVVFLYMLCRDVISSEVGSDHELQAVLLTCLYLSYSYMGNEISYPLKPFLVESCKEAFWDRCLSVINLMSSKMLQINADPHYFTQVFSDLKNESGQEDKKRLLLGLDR
Method in brief: as §3

MV4-11 = experiment: Cellular MV4-11 viability assay (CellTiter-Glo, 72 hours); format: cell-based; conditions: Homo sapiens; MV4-11 cells
Method: Human […] cell line, MV4-11_(ATCC, Cat #CRL-9591), NSCLC (Non-small cell lung cancer) cell line H460 (ATCC, Cat #HTB-177), A2780 (ECACC, Cat #93112519) and OVCAR-3(ATCC, Cat #HTB-161) were obtained from ATCC. Cells were grown in RPMI-1640 media (Invitrogen, Cat #22400-089) supplemented with 10% FBS (Invitrogen, Cat #10099141) and 1% penicillin/streptomycin (Invitrogen, Cat #15070063) and cultured at 37° C., 5% CO2 in a humidified chamber. All cell lines were routinely tested for mycoplasma.
To effect of the CDK7 inhibitor to inhibit the growth of target cancer cells, viability assay were conducted a 72 hour time period. Briefly, the candidate cell line was plated in 96 well plate at the following density of cells respectively. 1×10^4 cells/well for MV4-11, 5×10^3 for H460 and OVCAR-3, and 1×10^3 for A2780. After 24 hours, the cells were treated with various concentrations of the compound (ranging from 0.0015 uM to 10 uM). DMSO solvent without compound served as a control and final DMSO concentration lest than 0.1%. After 72 hours of incubation at 37° C., 5% CO2 incubator, cells were analyzed for the viability using the CellTiter-Glo Luminescent Cell Viability Assay (Promega, Cat #G7570). All viability assays were performed in duplicate and Luminescence was read using an Envision (Perkin Elmer, USA). Data was analyzed using XLfit software.

T1 sequence (P50613 whole entry): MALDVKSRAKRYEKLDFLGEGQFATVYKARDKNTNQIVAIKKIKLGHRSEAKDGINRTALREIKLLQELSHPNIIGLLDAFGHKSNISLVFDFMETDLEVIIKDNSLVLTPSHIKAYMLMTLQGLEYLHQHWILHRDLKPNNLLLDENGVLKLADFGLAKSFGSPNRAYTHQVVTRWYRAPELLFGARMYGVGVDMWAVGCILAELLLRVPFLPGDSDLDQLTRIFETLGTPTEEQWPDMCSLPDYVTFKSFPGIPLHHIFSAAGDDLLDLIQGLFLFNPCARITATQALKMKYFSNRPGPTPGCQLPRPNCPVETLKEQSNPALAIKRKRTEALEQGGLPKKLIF
T1 sequence (P51946 whole entry partner): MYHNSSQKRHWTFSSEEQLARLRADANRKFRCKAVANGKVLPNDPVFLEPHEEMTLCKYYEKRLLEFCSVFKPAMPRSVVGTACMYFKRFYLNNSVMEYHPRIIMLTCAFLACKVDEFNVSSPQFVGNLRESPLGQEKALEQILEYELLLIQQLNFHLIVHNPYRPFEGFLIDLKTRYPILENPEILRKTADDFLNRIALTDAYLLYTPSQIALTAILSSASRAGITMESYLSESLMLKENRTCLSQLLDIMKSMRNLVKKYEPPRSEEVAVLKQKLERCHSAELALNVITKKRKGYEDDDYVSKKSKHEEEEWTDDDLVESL
T1 sequence (P51948 whole entry partner): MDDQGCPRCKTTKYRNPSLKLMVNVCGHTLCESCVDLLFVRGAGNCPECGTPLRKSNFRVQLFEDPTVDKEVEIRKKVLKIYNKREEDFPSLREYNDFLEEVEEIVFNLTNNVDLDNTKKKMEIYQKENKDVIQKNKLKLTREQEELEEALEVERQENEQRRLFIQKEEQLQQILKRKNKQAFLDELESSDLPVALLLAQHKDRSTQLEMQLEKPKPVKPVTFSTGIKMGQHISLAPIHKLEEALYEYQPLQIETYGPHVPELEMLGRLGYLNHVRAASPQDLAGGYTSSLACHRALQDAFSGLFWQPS

Row | Compound | IC50 (CDK7/Cyclin H/MNAT1) | CDK1/CDK7: Selectivity of CDK7 inhibition over CDK1 inhibition (CDK7/Cyclin H/MNAT1) | CDK2/CDK7: Selectivity of CDK7 inhibition over CDK2 inhibition (CDK7/Cyclin H/MNAT1) | CDK5/CDK7: Selectivity of CDK7 inhibition over CDK5 inhibition (CDK7/Cyclin H/MNAT1) | IC50 (OVCAR-3) | IC50 (A2780) | IC50 (CDK1/Cyclin B) | IC50 (CDK2/Cyclin A) | IC50 (CDK5/p25) | IC50 (MV4-11)
1 | CC(C)c1cnn2c(NCc3ccccc3-c3nccc4cc(NC(=O)C5(C#N)CC5)ccc34)nc(N3CCC(N)CC3)nc12 [Compound 49] | < 0.1 µM | A (A indicates [fold] > 500) | A (A indicates [fold] > 500) | A (A indicates [fold] > 500) | < 1 µM | < 1 µM | > 1 µM | > 1 µM | > 1 µM | < 1 µM
2 | CC(C)c1cnn2c(NCc3ccccc3-c3nccc4cc(NC(=O)/C=C/CN(C)C)ccc34)nc(N3CCOCC3)nc12 [Compound 42] | 0.1 to 1 µM | B (B indicates 50 < [fold] ≤ 500) | B (B indicates 50 < [fold] ≤ 500) | B (B indicates 50 < [fold] ≤ 500) | < 1 µM | < 1 µM | > 1 µM | > 1 µM | > 1 µM | < 1 µM
3 | Cc1cccc(-c2ccc3cccc(NC(=O)/C=C/CN(C)C)c3n2)c1CNc1nc(N2CCC(N)CC2)nc2c(C(C)C)cnn12 [Compound 56] | < 0.1 µM | A (A indicates [fold] > 500) | A (A indicates [fold] > 500) | A (A indicates [fold] > 500) | < 1 µM | < 1 µM | > 1 µM | > 1 µM | > 1 µM | < 1 µM
4 | C=C(F)C(=O)Nc1ccc2c(-c3ccccc3CNc3nc(NC[C@H]4CCNC[C@@H]4O)nc4c(C(C)C)cnn34)nccc2c1 [Compound 64] | < 0.1 µM | A (A indicates [fold] > 500) | A (A indicates [fold] > 500) | A (A indicates [fold] > 500) | < 1 µM | < 1 µM | > 1 µM | > 1 µM | > 1 µM | < 1 µM
5 | C/C=C/C(=O)Nc1cccc2cc(-c3cccc(C)c3CNc3nc(NC[C@H]4CCNC[C@@H]4O)nc4c(C(C)C)cnn34)[nH]c12 [Compound 73] | < 0.1 µM | A (A indicates [fold] > 500) | A (A indicates [fold] > 500) | B (B indicates 50 < [fold] ≤ 500) | 1 to 10 µM | 1 to 10 µM | > 1 µM | > 1 µM | > 1 µM | < 1 µM
6 | CC(C)c1cnn2c(NCc3ccccc3-c3nccc4cc(NC(=O)C5=CCCC5)ccc34)nc(NC[C@H]3CCNC[C@@H]3O)nc12 [Compound 65] | < 0.1 µM | A (A indicates [fold] > 500) | A (A indicates [fold] > 500) | A (A indicates [fold] > 500) | < 1 µM | < 1 µM | > 1 µM | > 1 µM | > 1 µM | < 1 µM
7 | CC(C)c1cnn2c(NCc3ccccc3-c3nccc4cc(NC(=O)/C=C/CN(C)C)ccc34)nc(N3CCC(CO)CC3)nc12 [Compound 29] | 0.1 to 1 µM | B (B indicates 50 < [fold] ≤ 500) | B (B indicates 50 < [fold] ≤ 500) | B (B indicates 50 < [fold] ≤ 500) | < 1 µM | < 1 µM | > 1 µM | > 1 µM | > 1 µM | < 1 µM
8 | C/C=C/C(=O)Nc1ccc2c(-c3ccccc3CNc3nc(NCC4CNCCO4)nc4c(C(C)C)cnn34)nccc2c1 (racemic) [Compound 69] | < 0.1 µM | B (B indicates 50 < [fold] ≤ 500) | B (B indicates 50 < [fold] ≤ 500) | B (B indicates 50 < [fold] ≤ 500) | < 1 µM | < 1 µM | > 1 µM | > 1 µM | > 1 µM | < 1 µM
9 | CC(C)c1cnn2c(NCc3ccccc3-c3nccc4cc(NC(=O)/C=C/CN(C)C)ccc34)nc(N3CCCC(O)CC3)nc12 (racemic) [Compound 38] | 0.1 to 1 µM | B (B indicates 50 < [fold] ≤ 500) | B (B indicates 50 < [fold] ≤ 500) | B (B indicates 50 < [fold] ≤ 500) | < 1 µM | < 1 µM | > 1 µM | > 1 µM | > 1 µM | < 1 µM
10 | C=CC(=O)Nc1cccc2ccc(-c3cccc(C)c3CNc3nc(NC[C@H]4CCNC[C@@H]4O)nc4c(C(C)C)cnn34)nc12 [Compound 67] | < 0.1 µM | A (A indicates [fold] > 500) | A (A indicates [fold] > 500) | A (A indicates [fold] > 500) | < 1 µM | < 1 µM | > 1 µM | > 1 µM | > 1 µM | < 1 µM
11 | CC#CC(=O)Nc1ccc2c(-c3ccccc3CNc3nc(N4CCC(N)CC4)nc4c(C(C)C)cnn34)nccc2c1 [Compound 47] | < 0.1 µM | A (A indicates [fold] > 500) | A (A indicates [fold] > 500) | B (B indicates 50 < [fold] ≤ 500) | < 1 µM | < 1 µM | > 1 µM | > 1 µM | > 1 µM | < 1 µM
